How the values were obtained:
[1] = test system: Southern corn rootworm (Diabrotica undecimpuctata howardi Barber); assay: whole plant or invertebrate; conditions: in Zea mays, soil, read-out: percent mortality, SCRW
[2] = test system: peanut root knot nematode (Meloidogyne arenaria); assay: whole plant or invertebrate; conditions: in Arachis hypogaea, read-out: percent mortality, RKN
[3] = test system: German cockroach (Blattella germanicus); assay: whole plant or invertebrate; conditions: 240 h, read-out: percent mortality, GECR
[4] = test system: cotton aphid (Aphis gossypii); assay: whole plant or invertebrate; conditions: 72 h, read-out: percent mortality, CA
[5] = test system: beet armyworm (Spodoptera exiqua); assay: whole plant or invertebrate; conditions: 144 h, read-out: percent mortality, BAW
[6] = test system: tobacco budworm (Heliothis virescens); assay: Activity against tobacco budworm (TBW); type: in vivo; conditions: 144 h, read-out: percent mortality, TBW
Description: In conducting evaluations of insecticidal activity, each test compound was formulated as a 400 ppm solution, and this solution was then diluted with water to give lesser concentrations. The 400 ppm solution was prepared by combining 19.2 mL of 0.05% solution of Tween 20 (polyoxyethylene (20) sorbitan monolaurate) in water with a solution of 8 mg of the compound in 0.8 mL of acetone/EtOH (9/1).
Activity against tobacco budworm (Heliothis virescens) was evaluated as follows. A general purpose lepidoptera artificial diet was diluted to half strength with a 5% non nutritive agar. 8 mL of this diet material was dispensed into each one ounce diet cup. One hour prior to treatment 18 to 20 eggs were dispensed onto the diet surface. The cups were then sprayed with formulated material through a flat-fan nozzle. The test was run using concentrations of 400 ppm and 50 ppm. Treated cups were air dried prior to sealing with plastic caps. The cups were held for 6 days at room temperature. Activity was then rated based on the total number of live and dead larvae, and on the size of live larvae.

[7] = test system: two spotted spider mite (Tetranychus urticae); assay: whole plant or invertebrate; conditions: 72 h, read-out: percent mortality, TSSM
[8] = test system: aster leafhopper (Macrosteles fascifrons); assay: whole plant or invertebrate; conditions: 24 h, read-out: percent mortality, ALH

## Cc1nccc(NC(=O)Cc2ccc(Oc3ccc(Cl)cc3)cc2)n1 [Compound 1, 4-(4-chlorophenoxy)phenyl-N-(2-methyl-4-pyrimidinyl)acetamide]
[1]
  mortality at 24 µg/g: 100%
[2]
  mortality at 400 ppm: 100%
[3]
  mortality at 400 ppm: 100%
[4]
  mortality at 400 ppm: 100%
[5]
  mortality at 400 ppm: 100%
[6]
  mortality at 400 ppm: 100%
[7]
  mortality at 400 ppm: 100%
[8]
  mortality at 400 ppm: 0%

## O=C(Cc1ccc(OCC(F)(F)F)cc1)Nc1ccnc(-c2ccccc2)n1 [Compound 5, 4-(2,2,2-trifluroethoxy)phenyl-N-(2-phenyl-4-pyrimidinyl)acetamide]
[1]
  mortality at 24 µg/g: 0%
[2]
  mortality at 400 ppm: 0%
[3]
  mortality at 400 ppm: 0%
[4]
  mortality at 400 ppm: 0%
[5]
  mortality at 400 ppm: 30%
[6]
  mortality at 400 ppm: 0%
[7]
  mortality at 400 ppm: 0%
[8]
  mortality at 400 ppm: 0%

## CSc1nccc(NC(=O)Cc2ccc(Oc3ccc(F)cc3)cc2)n1 [Compound 6, 4-(4-fluorophenoxy)phenyl-N-(2-methylthio-4-pyrimidinyl)acetamide]
[1]
  mortality at 24 µg/g: 100%
[2]
  mortality at 400 ppm: 0%
[3]
  mortality at 400 ppm: 60%
[4]
  mortality at 400 ppm: 100%
[5]
  mortality at 400 ppm: 100%
[6]
  mortality at 400 ppm: 90%
[7]
  mortality at 400 ppm: 0%
[8]
  mortality at 400 ppm: 100%

## O=C(Cc1ccc(Oc2ccc(F)cc2)cc1)Nc1ccnc(-c2ccccc2)n1 [Compound 7, 4-(4-fluorophenoxy)phenyl-N-(2-phenyl-4-pyrimidinyl)acetamide]
[1]
  mortality at 24 µg/g: 0%
[2]
  mortality at 400 ppm: 0%
[3]
  mortality at 400 ppm: 60%
[4]
  mortality at 400 ppm: 100%
[5]
  mortality at 400 ppm: 60%
[6]
  mortality at 400 ppm: 60%
[7]
  mortality at 400 ppm: 0%
[8]
  mortality at 400 ppm: 0%

## Cc1nccc(NC(=O)Cc2cccc(Oc3ccccc3)c2)n1 [Compound 8, 3-phenoxyphenyl-N-(2-methyl-4-pyrimidinyl)acetamide]
[1]
  mortality at 24 µg/g: 0%
[2]
  mortality at 400 ppm: 0%
[3]
  mortality at 400 ppm: 40%
[4]
  mortality at 400 ppm: 100%
[5]
  mortality at 400 ppm: 0%
[6]
  mortality at 400 ppm: 0%
[7]
  mortality at 400 ppm: 0%
[8]
  mortality at 400 ppm: 100%

## CCc1nccc(NC(=O)Cc2ccc(OCC(F)(F)F)cc2)n1 [Compound 9, 4-(2,2,2-trifluroethoxy)phenyl-N-(2-ethyl-4-pyrimidinyl)acetamide]
[1]
  mortality at 24 µg/g: 0%
[2]
  mortality at 400 ppm: 0%
[3]
  mortality at 400 ppm: 0%
[4]
  mortality at 400 ppm: 100%
[5]
  mortality at 400 ppm: 100%
[6]
  mortality at 400 ppm: 100%
[7]
  mortality at 400 ppm: 0%
[8]
  mortality at 400 ppm: 100%

## CCc1nccc(NC(=O)Cc2ccc(Oc3ccc(F)cc3)cc2)n1 [Compound 10, 4-(4-fluorophenoxy)phenyl-N-(2-ethyl-4-pyrimidinyl)acetamide]
[1]
  mortality at 24 µg/g: 100%
[2]
  mortality at 400 ppm: 90%
[3]
  mortality at 400 ppm: 100%
[4]
  mortality at 400 ppm: 100%
[5]
  mortality at 400 ppm: 100%
[6]
  mortality at 400 ppm: 100%
[7]
  mortality at 400 ppm: 100%
[8]
  mortality at 400 ppm: 100%

## CCc1nccc(NC(=O)Cc2ccc(Oc3ccc(C(F)(F)F)cc3)cc2)n1 [Compound 11, 4-(4-trifluoromethylphenoxy)phenyl-N-(2-ethyl-4-pyrimidinyl)acetamide]
[1]
  mortality at 24 µg/g: 100%
[2]
  mortality at 400 ppm: 80%
[3]
  mortality at 400 ppm: 100%
[4]
  mortality at 400 ppm: 100%
[5]
  mortality at 400 ppm: 100%
[6]
  mortality at 400 ppm: 100%
[7]
  mortality at 400 ppm: 100%
[8]
  mortality at 400 ppm: 80%

## CCc1nccc(NC(=O)Cc2ccc(Oc3ccc(C#N)cc3)cc2)n1 [Compound 12, 4-(4-cyanophenoxy)phenyl-N-(2-ethyl-4-pyrimidinyl)acetamide]
[1]
  mortality at 24 µg/g: 100%
[2]
  mortality at 400 ppm: 100%
[3]
  mortality at 400 ppm: 100%
[4]
  mortality at 400 ppm: 100%
[5]
  mortality at 400 ppm: 100%
[6]
  mortality at 400 ppm: 100%
[7]
  mortality at 400 ppm: 100%
[8]
  mortality at 400 ppm: 100%

## CCc1nccc(NC(=O)Cc2ccc(Oc3ncc(C(F)(F)F)cc3F)cc2)n1 [Compound 32, 4-(3-fluoro-5-trifluromethyl-2-pyridinyloxy)phenyl-N-(2-ethyl-4-pyrimidinyl)acetamide]
[1]
  mortality at 24 µg/g: 0%
[2]
  mortality at 400 ppm: 100%
[3]
  mortality at 400 ppm: 60%
[4]
  mortality at 400 ppm: 100%
[5]
  mortality at 400 ppm: 100%
[6]
  mortality at 400 ppm: 100%
[7]
  mortality at 400 ppm: 100%

## CCCCCCCCC(C)C(=O)Nc1ccnc(CC)n1 (stereo not drawn) [Compound 33, N-(2-ethyl-4-pyrimidinyl)-2 methyldecamide]
[1]
  mortality at 24 µg/g: 0%
[2]
  mortality at 400 ppm: 0%
[3]
  mortality at 400 ppm: 20%
[4]
  mortality at 400 ppm: 80%
[5]
  mortality at 400 ppm: 0%
[6]
  mortality at 400 ppm: 0%
[7]
  mortality at 400 ppm: 40%

## CCCCCCCCCCCCCCCCCC(=O)Nc1ccnc(CC)n1 [Compound 34]
[1]
  mortality at 24 µg/g: 0%
[2]
  mortality at 400 ppm: 0%
[3]
  mortality at 400 ppm: 20%
[4]
  mortality at 400 ppm: 0%
[5]
  mortality at 400 ppm: 0%
[6]
  mortality at 400 ppm: 0%
[7]
  mortality at 400 ppm: 0%

## CCc1nccc(NC(=O)Cc2ccc(OCC(F)(F)F)cn2)n1 [Compound 35, 5-(2,2,2-trifluoromethoxy)-2-pyridinyl-N-(2-ethyl-4-pyrimidinyl)acetamide]
[1]
  mortality at 24 µg/g: 100%
[2]
  mortality at 400 ppm: 100%
[3]
  mortality at 400 ppm: 80%
[4]
  mortality at 400 ppm: 100%
[5]
  mortality at 400 ppm: 100%
[6]
  mortality at 400 ppm: 60%
[7]
  mortality at 400 ppm: 100%

## CCc1nccc(NC(=O)Cc2ccc(Oc3ccc(S(C)(=O)=O)cn3)cc2)n1 [Compound 36, 4-(5-methylsulfonyl-2-pyridinyloxy)phenyl-N-(2-ethyl-4-pyrimidinyl)acetamide]
[1]
  mortality at 24 µg/g: 0%
[2]
  mortality at 400 ppm: 100%
[3]
  mortality at 400 ppm: 40%
[4]
  mortality at 400 ppm: 40%
[5]
  mortality at 400 ppm: 100%
[6]
  mortality at 400 ppm: 100%
[7]
  mortality at 400 ppm: 0%

## CCc1nccc(NC(=O)Cc2ccc(Oc3ccc(Cl)cn3)cc2)n1 [Compound 37, 4-(5-chloro-2-pyridinyloxy)phenyl-N-(2-ethyl-4-pyrimidinyl)acetamide]
[1]
  mortality at 24 µg/g: 0%
[2]
  mortality at 400 ppm: 0%
[3]
  mortality at 400 ppm: 100%
[4]
  mortality at 400 ppm: 0%
[5]
  mortality at 400 ppm: 100%
[6]
  mortality at 400 ppm: 100%
[7]
  mortality at 400 ppm: 0%

## COCc1nccc(NC(=O)Cc2ccc(OCC(F)(F)F)cc2)n1 [Compound 38, 4-(2,2,2-trifluroethoxy)phenyl-N-(2-(methoxymethyl)-4-pyrimidinyl)acetamide]
[1]
  mortality at 24 µg/g: 0%
[2]
  mortality at 400 ppm: 0%
[3]
  mortality at 400 ppm: 0%
[4]
  mortality at 400 ppm: 0%
[5]
  mortality at 400 ppm: 0%
[6]
  mortality at 400 ppm: 0%
[7]
  mortality at 400 ppm: 0%

## COCc1nccc(NC(=O)Cc2ccc(Oc3ccc(F)cc3)cc2)n1 [Compound 39, 4-(4-fluorophenoxy)phenyl-N-(2-(methoxymethyl)-4-pyrimidinyl)acetamide]
[1]
  mortality at 24 µg/g: 0%
[2]
  mortality at 400 ppm: 100%
[3]
  mortality at 400 ppm: 100%
[4]
  mortality at 400 ppm: 100%
[5]
  mortality at 400 ppm: 100%
[6]
  mortality at 400 ppm: 100%
[7]
  mortality at 400 ppm: 100%

## CCCCc1nccc(NC(=O)Cc2ccc(Oc3ccc(C(F)(F)F)cc3)cc2)n1 [Compound 65, 4-(4-trifluoromethylphenoxy)phenyl-N-(2-butyl-4-pyrimidinyl)acetamide]
[1]
  mortality at 24 µg/g: 0%
[3]
  mortality at 400 ppm: 100%
[4]
  mortality at 400 ppm: 100%
[5]
  mortality at 400 ppm: 100%
[6]
  mortality at 400 ppm: 100%
[7]
  mortality at 400 ppm: 100%
[8]
  mortality at 400 ppm: 0%

## O=C(Cc1ccc(Oc2ccc(C(F)(F)F)cc2)cc1)Nc1ccnc(C2CCC2)n1 [Compound 66, 4-(4-trifluoromethylphenoxy)phenyl-N-(2-cyclobutyl-4-pyrimidinyl)acetamide]
[1]
  mortality at 24 µg/g: 100%
[3]
  mortality at 400 ppm: 100%
[4]
  mortality at 400 ppm: 100%
[5]
  mortality at 400 ppm: 100%
[6]
  mortality at 400 ppm: 100%
[7]
  mortality at 400 ppm: 100%
[8]
  mortality at 400 ppm: 40%

## Cc1nccc(NC(=O)Cc2ccc(Oc3cccc(C(F)(F)F)c3)cc2)n1 [Compound 69, 4-(3-trifluoromethylphenoxy)phenyl-N-(2-methyl-4-pyrimidinyl)acetamide]
[1]
  mortality at 24 µg/g: 0%
[3]
  mortality at 400 ppm: 0%
[4]
  mortality at 400 ppm: 0%
[5]
  mortality at 400 ppm: 80%
[6]
  mortality at 400 ppm: 80%
[7]
  mortality at 400 ppm: 0%
[8]
  mortality at 400 ppm: 40%

## CC(C)c1nccc(NC(=O)Cc2ccc(Oc3ccc(C(F)(F)F)cc3)cc2)n1 [Compound 72, 4-(4-trifluoromethylphenoxy)phenyl-N-(2-(1-methylethyl)-4-pyrimidinyl)acetamide]
[1]
  mortality at 24 µg/g: 100%
[2]
  mortality at 400 ppm: 100%
[3]
  mortality at 400 ppm: 100%
[4]
  mortality at 400 ppm: 100%
[5]
  mortality at 400 ppm: 0%
[6]
  mortality at 400 ppm: 100%
[7]
  mortality at 400 ppm: 100%

From patent US5556859A, “N-(4-pyrimidinyl)amide pesticides” (DowElanco, priority 1994, dated 1996)
